This note sets out measurements from BindingDB's records for doi:10.1021/jm010244+ (Axys Pharmaceuticals, 2001).

The target in this test is plasmin (Homo sapiens). Briefly: The compound was tested for inhibition of human plasmin.

As to `Cc1cc2[nH]c(-c3cccc(-c4ccccc4)c3O)cc2cc1C(=N)N` [2-(2-Hydroxy-biphenyl-3-yl)-6-methyl-1H-indole-5-carboxamidine], the affinity corresponds to a Ki of 210 nM.
To `N=C(N)c1ccc2[nH]c(-c3cccc(-c4ccccc4)c3O)cc2c1Cl` [4-Chloro-2-(2-hydroxy-biphenyl-3-yl)-1H-indole-5-carboxamidine] belongs 3000 nM.
